Consider 4 molecules from ChEMBL document CHEMBL1201862, “PubChem BioAssay data set” (2004).

Calls of active or inactive are those of the source.

The target of assay [1] is T1, Female germline-specific tumor suppressor gld-1 (Caenorhabditis elegans, UniProt Q17339).
T1 sequence (Q17339 whole entry): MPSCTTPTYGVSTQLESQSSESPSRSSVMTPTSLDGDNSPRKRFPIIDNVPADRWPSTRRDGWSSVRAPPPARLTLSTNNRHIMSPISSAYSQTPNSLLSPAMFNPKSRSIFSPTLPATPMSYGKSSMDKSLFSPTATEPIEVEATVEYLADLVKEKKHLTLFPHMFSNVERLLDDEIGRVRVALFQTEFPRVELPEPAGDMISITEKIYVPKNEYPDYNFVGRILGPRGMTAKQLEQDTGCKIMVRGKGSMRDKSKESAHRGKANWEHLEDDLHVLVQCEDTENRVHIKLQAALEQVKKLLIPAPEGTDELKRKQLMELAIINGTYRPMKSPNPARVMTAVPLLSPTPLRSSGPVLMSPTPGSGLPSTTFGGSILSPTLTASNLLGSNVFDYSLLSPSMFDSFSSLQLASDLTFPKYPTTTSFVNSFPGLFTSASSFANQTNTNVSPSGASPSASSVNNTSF
Put plainly: blockers of GLD-1/TGE RNA complex formation – biochemical, fluorescence polarization, C. elegans, dose response (AID 2802).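 Also: fluorescence polarization of labeled TGE RNA bound by purified gld-1 protein.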 In general terms: Fluorescence polarisation rises when a labelled molecule tumbles more slowly, as on binding a larger partner.

Assay [2] deals with Long-chain-fatty-acid--AMP ligase FadD28 (Mycobacterium tuberculosis, UniProt P9WQ59). The assay can be described thus: Fluorescence polarization aasay to screen for inhibitors that compete for the binding of FadD28 to a bisubstrate Measured in Biochemical System Using Plate Reader - 2147-01_Inhibitor_Dose_CherryPick_Activity. Type of assay: functional, Mycobacterium tuberculosis H37Rv.
Sequence of Long-chain-fatty-acid--AMP ligase FadD28 (P9WQ59 whole entry): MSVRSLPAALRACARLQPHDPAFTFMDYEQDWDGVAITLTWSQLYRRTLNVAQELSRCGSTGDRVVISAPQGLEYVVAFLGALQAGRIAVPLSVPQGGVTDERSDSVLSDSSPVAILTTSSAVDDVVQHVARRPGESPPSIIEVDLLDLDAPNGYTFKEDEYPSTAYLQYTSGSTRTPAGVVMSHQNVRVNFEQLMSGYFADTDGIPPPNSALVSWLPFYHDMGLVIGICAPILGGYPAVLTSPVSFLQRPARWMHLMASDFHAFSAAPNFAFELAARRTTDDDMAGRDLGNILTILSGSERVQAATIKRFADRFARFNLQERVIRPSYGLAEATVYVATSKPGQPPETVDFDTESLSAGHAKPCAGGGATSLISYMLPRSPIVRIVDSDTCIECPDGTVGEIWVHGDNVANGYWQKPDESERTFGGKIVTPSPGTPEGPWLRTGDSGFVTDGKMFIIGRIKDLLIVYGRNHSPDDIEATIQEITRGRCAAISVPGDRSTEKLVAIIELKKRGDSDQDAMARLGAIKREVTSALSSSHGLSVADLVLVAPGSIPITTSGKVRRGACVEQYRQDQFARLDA

In assay [3] the target is T2, Polyadenylate-binding protein 1 (Homo sapiens, UniProt P11940). Put plainly: MLLE domain peptide-binding blockers, IC50 – biochemical, fluorescence polarization, FITC-PAM2 peptide, dose response (AID 602259). Type of assay: functional. The settings on record: read-out: IC50_Mean.
T2 sequence (P11940 whole entry, the tested form may be a part): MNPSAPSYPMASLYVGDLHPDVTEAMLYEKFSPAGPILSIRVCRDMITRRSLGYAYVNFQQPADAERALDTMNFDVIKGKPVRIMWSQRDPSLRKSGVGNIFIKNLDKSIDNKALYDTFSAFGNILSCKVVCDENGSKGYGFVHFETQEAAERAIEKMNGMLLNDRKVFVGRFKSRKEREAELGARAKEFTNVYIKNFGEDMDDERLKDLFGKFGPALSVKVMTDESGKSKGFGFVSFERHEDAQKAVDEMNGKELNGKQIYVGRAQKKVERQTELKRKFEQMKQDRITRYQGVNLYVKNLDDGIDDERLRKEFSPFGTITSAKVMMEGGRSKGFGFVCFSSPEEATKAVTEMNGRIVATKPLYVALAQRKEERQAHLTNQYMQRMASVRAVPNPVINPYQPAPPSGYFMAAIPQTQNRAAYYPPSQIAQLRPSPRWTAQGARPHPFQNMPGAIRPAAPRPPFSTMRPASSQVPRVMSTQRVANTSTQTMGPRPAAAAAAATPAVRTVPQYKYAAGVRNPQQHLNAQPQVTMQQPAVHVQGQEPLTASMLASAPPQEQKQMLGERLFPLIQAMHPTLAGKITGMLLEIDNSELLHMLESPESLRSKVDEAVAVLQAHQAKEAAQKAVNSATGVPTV
The next assay addresses T3, Protein Rev (Human immunodeficiency virus type 1 group M subtype B (isolate HXB2)(HIV-1), UniProt P04618).
T3 sequence (P04618 whole entry): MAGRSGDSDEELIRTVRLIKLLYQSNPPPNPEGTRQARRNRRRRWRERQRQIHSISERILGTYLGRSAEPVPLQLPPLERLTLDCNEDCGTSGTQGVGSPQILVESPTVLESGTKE
Put plainly: blockers of HIV Rev/RRE RNA complex – biochemical, fluorescence polarization, HIV-1, dose response (AID 434976). Details: species or system Human immunodeficiency virus 1.

Assay [4] deals with T2, Polyadenylate-binding protein 1. Put plainly: MLLE binding blockers, Cy5 peptide tracer – biochemical, fluorescence polarization, Cy5-PAM2 peptide, secondary, miRNA deadenylation inhibitor project, dose response (AID 602260). The assay is classed as functional. The settings on record: read-out: IC50_Mean.
The target of the next assay is 14-3-3 protein gamma (Homo sapiens, UniProt P61981). Put plainly: modulators of 14-3-3 gamma client binding – dose response (AID 711). Type of assay: functional.
Sequence of 14-3-3 protein gamma (P61981 whole entry): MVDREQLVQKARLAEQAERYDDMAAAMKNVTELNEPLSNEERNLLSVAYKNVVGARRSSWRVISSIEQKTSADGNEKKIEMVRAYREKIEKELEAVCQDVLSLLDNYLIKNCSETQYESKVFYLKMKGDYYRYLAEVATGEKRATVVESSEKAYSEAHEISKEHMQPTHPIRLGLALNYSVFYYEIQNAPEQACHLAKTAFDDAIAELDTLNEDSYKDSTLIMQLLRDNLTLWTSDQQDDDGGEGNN
For assay [5], the target named is Aryl hydrocarbon receptor (Homo sapiens, UniProt P35869). Put plainly: Luminescence-based cell-based high throughput dose response assay for activators of the Aryl Hydrocarbon Receptor (AHR). [Related pubchem assays: 2796 (Primary screen (AHR activators in singlicate)), 2845 (Confirmation screen (AHR activators in triplicate)), 434939 (Counterscreen (PXR activators in triplicate)), 2804 (Summary (AHR activators))]. The assay is classed as ADME.
Sequence of Aryl hydrocarbon receptor (P35869 whole entry): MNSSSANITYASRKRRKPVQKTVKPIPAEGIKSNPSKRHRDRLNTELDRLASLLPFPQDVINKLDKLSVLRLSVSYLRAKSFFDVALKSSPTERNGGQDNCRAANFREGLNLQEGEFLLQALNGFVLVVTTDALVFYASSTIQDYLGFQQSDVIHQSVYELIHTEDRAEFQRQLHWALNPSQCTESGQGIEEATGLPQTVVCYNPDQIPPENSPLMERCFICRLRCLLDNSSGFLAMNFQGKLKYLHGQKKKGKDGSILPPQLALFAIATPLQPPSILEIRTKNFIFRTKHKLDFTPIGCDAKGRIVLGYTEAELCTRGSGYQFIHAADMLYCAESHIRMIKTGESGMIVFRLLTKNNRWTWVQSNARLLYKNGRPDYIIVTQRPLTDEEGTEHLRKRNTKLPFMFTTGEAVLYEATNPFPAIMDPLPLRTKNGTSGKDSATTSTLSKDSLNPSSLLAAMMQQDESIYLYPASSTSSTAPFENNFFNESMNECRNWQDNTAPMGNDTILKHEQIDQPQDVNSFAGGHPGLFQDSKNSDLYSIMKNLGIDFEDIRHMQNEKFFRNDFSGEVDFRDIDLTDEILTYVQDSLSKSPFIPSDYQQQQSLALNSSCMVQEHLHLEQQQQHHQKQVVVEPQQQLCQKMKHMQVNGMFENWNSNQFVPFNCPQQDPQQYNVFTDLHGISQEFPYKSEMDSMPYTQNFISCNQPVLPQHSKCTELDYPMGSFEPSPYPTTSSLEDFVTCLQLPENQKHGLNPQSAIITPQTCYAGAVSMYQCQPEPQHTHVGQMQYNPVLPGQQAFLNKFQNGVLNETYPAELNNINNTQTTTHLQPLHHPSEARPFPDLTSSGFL

Assay [6] deals with Luciferin 4-monooxygenase (Photinus pyralis, UniProt P08659). The assay can be described thus: inhibition of purified Photinus pyralis luciferase – biochemical, luminescence, dose response (AID 1891).
Sequence of Luciferin 4-monooxygenase (P08659 whole entry): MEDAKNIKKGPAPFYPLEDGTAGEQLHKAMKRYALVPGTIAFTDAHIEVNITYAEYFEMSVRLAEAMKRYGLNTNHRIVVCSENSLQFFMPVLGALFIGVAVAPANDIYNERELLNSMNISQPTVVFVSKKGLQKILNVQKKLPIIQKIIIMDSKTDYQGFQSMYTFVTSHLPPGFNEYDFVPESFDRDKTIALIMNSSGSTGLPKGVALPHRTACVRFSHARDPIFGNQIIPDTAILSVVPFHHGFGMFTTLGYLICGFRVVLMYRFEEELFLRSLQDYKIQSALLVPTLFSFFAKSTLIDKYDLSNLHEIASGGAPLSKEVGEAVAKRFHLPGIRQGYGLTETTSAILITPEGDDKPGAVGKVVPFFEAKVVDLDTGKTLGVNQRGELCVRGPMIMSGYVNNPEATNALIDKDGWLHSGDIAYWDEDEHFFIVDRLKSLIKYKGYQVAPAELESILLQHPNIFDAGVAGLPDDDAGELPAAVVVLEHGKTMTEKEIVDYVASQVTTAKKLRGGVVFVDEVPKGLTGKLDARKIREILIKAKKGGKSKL
Assay [7] addresses T4, Calpain-2 catalytic subunit (Sus scrofa, UniProt P43367).
T4 sequence (P43367 whole entry): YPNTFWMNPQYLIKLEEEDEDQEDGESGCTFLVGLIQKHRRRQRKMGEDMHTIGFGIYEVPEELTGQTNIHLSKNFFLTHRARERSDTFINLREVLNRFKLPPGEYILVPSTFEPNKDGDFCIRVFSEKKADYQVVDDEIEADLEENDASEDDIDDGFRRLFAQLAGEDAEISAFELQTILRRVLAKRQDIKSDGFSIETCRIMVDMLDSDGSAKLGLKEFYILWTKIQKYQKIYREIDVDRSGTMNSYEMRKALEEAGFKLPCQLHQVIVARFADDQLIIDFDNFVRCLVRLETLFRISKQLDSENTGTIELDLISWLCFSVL
Put plainly: m-calpain protease blockers, concentration series – biochemical, fluorogenic peptide substrate, dose response (AID 1420). Type of assay: functional.

Another assay deals with T5, Protein RecA (Mycobacterium tuberculosis, UniProt P9WHJ3).
T5 sequence (P9WHJ3 whole entry): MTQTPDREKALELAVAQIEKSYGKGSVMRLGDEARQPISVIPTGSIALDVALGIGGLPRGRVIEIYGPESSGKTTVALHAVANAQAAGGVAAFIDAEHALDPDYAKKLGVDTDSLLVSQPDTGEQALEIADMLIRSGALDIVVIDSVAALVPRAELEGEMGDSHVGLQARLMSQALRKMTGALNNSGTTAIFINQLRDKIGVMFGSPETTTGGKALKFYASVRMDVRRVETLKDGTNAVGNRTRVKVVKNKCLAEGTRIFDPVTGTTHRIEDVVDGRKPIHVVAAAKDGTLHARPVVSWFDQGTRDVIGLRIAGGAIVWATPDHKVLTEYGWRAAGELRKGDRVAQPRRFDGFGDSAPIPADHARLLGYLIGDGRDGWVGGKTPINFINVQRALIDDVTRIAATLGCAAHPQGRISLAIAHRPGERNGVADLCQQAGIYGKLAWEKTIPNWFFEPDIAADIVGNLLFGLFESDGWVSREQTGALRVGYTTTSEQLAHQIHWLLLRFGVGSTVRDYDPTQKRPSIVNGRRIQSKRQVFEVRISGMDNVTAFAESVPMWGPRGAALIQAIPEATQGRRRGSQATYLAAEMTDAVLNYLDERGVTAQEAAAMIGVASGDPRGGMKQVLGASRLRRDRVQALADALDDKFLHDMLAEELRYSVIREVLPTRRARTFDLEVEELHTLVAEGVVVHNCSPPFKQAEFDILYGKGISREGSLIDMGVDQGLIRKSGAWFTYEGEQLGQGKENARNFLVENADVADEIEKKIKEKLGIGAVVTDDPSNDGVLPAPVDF
Put plainly: Fluorescence Cell-Free Homogeneous Dose Retest to Identify Inhibitors of RecA-Intein Splicing Activity. [Related pubchem assays (depositor defined):AID2097, AID2223, AID489010, AID492950]. Type of assay: functional.

The test system of the next assay is INS1. The assay can be described thus: INS-1E survival protection against cytokine death – cell-based, luminescence, retest, dose response (AID 449756).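 Also: cell death triggered by IL-1 beta plus TNF-alpha plus IFN-gamma mixture; protective hits raise ATP signal compared with cytokine alone wells.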 The assay is classed as functional. The settings on record: Rattus norvegicus.
Assay [8] is described as follows: Luminescence Cell-Based Dose Confirmation HTS to Identify Inhibitors of Platelet Dense Granule Release. [Related pubchem assays: 1663 (Primary HTS), 1678 (Summary of Project)]. The assay is classed as functional.
Assay [9] has as its target T6, Rac GTPase-activating protein 1 (Homo sapiens, UniProt Q9H0H5).
T6 sequence (Q9H0H5 whole entry): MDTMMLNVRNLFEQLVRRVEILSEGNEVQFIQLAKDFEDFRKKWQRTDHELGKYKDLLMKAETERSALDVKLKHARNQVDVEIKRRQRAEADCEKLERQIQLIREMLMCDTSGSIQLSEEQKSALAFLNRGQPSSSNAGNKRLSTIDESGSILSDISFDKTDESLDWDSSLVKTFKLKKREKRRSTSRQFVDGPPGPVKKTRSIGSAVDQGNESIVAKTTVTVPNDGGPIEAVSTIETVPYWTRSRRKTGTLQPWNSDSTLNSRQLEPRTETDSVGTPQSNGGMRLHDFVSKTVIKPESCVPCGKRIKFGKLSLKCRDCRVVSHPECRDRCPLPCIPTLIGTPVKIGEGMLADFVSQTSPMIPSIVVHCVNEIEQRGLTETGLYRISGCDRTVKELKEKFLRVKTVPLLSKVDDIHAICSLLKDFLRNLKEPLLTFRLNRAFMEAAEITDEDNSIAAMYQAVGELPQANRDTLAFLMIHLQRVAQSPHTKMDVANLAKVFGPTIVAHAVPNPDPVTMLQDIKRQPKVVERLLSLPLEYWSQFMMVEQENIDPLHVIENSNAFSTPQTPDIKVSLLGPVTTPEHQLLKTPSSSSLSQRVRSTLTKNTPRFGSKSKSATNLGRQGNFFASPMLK
Put plainly: blockers of MgcRacGAP-driven Rac1 GTP hydrolysis – biochemical, ADP Hunter fluorescence, primary and confirmatory, confirmation (AID 624330). The assay is classed as functional.

Assay [10] is described as follows: Luminescence Cell-Based Dose Response HTS to Identify Inhibitors of 5'UTR Stem-Loop Driven Prion Protein mRNA Translation in H4 Neuroglioblastoma Cells. [Related pubchem assays: 1827 (Project Summary), 1813 (Primary HTS)]. The assay is classed as functional.
The nature of assay [11]: Luminescent dose response cell-based high throughput screening assay for inhibitors of the Janus kinase 2 mutant JAK2V617F. [Related pubchem assays: 1446 (Primary screen.), 1521 (Confirmation assay.), 1486 (Counter screen.)]. Type of assay: functional. For orientation: The purpose of a counterscreen is to sort out artefacts and off-target activity.
For assay [12], the target named is T7, Replicative DNA helicase DnaB (Mycobacterium tuberculosis, UniProt P9WMR3).
T7 sequence (P9WMR3 whole entry): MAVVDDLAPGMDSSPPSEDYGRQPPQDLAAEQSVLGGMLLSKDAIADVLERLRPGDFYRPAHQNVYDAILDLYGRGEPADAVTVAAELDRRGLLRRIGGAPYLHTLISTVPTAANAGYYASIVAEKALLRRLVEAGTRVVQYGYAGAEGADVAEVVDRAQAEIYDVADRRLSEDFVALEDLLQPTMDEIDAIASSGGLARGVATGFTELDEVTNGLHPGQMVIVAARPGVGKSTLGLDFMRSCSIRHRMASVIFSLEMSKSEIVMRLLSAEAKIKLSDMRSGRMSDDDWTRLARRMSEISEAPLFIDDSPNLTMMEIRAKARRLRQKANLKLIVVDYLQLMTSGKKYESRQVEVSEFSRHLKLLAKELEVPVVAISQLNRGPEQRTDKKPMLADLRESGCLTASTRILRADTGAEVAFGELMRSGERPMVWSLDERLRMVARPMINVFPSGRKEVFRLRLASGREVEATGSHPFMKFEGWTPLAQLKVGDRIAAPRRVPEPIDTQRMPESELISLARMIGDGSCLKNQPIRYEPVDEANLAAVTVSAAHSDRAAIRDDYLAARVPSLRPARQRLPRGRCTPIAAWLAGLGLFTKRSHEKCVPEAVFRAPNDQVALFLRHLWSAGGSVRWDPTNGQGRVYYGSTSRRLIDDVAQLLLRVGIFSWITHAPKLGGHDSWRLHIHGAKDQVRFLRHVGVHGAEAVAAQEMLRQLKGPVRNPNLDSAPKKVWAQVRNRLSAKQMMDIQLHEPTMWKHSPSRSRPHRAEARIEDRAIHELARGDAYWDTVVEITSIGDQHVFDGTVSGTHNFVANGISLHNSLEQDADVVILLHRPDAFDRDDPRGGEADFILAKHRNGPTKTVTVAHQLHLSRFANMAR
Put plainly: DnaB intein splicing inhibitors, dose response, biochemical, cell-free fluorescence (AID 449749). Type of assay: functional.

Assay [13] is described as follows: viability loss in HeLa cells – cytotoxicity control for MgcRacGAP inhibitor project, dose response (AID 624300). The assay is classed as functional.
Another assay concerns Danio rerio. Put plainly: In Vivo Angiogenesis Dose-Response Confirmation. [Related pubchem assays: 732 (Assay preceding this confirmatory assay.)]. Type of assay: functional, organism-based.
In assay [14] the target is Voltage-gated inwardly rectifying potassium channel KCNH2 (Homo sapiens, UniProt Q12809). Particulars: Potency.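 Also: confirmatory quantitative high-throughput screen measuring inhibition of hERG channel activity.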
Sequence of Voltage-gated inwardly rectifying potassium channel KCNH2 (Q12809 whole entry): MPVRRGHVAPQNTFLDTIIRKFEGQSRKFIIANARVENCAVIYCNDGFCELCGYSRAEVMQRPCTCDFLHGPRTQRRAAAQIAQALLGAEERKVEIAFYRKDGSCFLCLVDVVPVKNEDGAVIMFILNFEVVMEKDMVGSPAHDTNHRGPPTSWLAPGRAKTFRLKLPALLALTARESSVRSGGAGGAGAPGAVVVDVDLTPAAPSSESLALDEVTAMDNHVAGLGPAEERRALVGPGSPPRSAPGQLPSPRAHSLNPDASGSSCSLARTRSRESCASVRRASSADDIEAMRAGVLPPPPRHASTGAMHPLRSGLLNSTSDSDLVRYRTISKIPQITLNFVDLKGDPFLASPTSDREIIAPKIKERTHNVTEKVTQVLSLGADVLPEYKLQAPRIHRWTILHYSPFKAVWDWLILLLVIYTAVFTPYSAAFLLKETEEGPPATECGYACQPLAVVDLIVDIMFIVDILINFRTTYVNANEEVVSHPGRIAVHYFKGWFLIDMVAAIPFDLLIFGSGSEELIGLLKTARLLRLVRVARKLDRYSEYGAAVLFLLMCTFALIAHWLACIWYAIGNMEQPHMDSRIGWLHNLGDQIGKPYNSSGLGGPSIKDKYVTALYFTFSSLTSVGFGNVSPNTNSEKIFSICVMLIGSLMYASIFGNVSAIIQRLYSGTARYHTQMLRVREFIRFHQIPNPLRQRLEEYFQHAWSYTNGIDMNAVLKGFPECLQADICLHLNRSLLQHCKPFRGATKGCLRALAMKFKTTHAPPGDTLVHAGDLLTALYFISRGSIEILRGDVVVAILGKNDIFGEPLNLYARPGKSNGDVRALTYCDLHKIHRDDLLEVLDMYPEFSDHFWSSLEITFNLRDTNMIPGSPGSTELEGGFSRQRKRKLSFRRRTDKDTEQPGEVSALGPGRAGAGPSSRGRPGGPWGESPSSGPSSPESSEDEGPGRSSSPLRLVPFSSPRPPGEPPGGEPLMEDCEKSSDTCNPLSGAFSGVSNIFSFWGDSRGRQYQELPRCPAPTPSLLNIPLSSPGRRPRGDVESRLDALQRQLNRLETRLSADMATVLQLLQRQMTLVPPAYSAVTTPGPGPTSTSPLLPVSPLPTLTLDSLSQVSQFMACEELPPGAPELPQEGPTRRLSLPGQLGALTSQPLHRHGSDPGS

The AC50 is the concentration at which the activity in the assay is half-maximal. For the molecule `CCn1c(CSc2nccn2C)nc2cc(C(=O)O)ccc21`, the IC50 in assay [1] is 14.9 µM (inactive); in [3] it was 36.7 µM (inactive); at Protein Rev, 19.7 µM (not active); in assay [4], 62.1 µM (inactive); at 14-3-3 protein gamma, > 50 µM (not active). In addition, in assay [2], the AC50 is > 100 µM (inactive).

Usually EC50 stands for the midpoint of the concentration-response curve. For the molecule `COCC(=O)Nc1nnc(-c2cccs2)s1`, the EC50 in assay [5] is 6.26 µM (active).

In general, CC50 refers to the concentration that lowers cell viability or growth by half. `O=C1/C(=N\c2ccc(O)cc2)C=C(O)c2ccccc21`: the EC50 in assay [6] was 3.81 µM (active); at Protein RecA it was 3.57 µM (active); in assay [8], 4.34 µM (active); in [10] it was > 120 µM (not active). For the same molecule, the results for the IC50 in assay [7], in [9] and in [11] were 5.1 µM (not active), 23.7 µM (active) and 2.02 µM (active), respectively. Moreover, the AC50 is 6.8 µM (active) in the assay with INS1 and 3.88 µM (active) in assay [12]. Besides, the CC50 in assay [13] was 100 µM (active).

Consider `CN(C)c1ccc(/C=C2\C(=O)Nc3ccccc32)cc1`, for which, in the assay with Danio rerio, the IC50 is listed as > 100 µM (not active). In assay [14], the AC50 was 14.1 µM (inconclusive).
